Results: the METLIN SMRT retention time set (Domingo-Almenara et al. 2019)

Assay: gradient 5% acetonitrile 3 min, to 50% in 2 min, to 85% in 15 min, held 3 min, 100 µL/min
Conditions: column: Zorbax Extend-C18 2.1 x 50 mm; eluents: water / acetonitrile, 0.1% formic acid
Outline: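 Retention time was recorded from adduct peaks, which were picked computationally and each inspected manually. Pure standards ran in mixtures of ~100 molecules on HPLC coupled to a quadrupole time-of-flight mass spectrometer, in positive and negative ionization mode, through a Zorbax Extend-C18 column (2.1 × 50 mm, 1.8 μm) at 100 μL/min. Eluents were water and acetonitrile, each with 0.1% formic acid.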

Row | Compound | RP-LC retention time
1 | O=S(=O)(c1ccc2c(c1)CCCC2)N1CCCC1c1nc(-c2cccc(Cl)c2)no1 (stereo not given) | 1410 s
2 | Cn1ccc2cc(CCC(=O)N3CCN(c4ccc(F)cc4)CC3)ccc21 | 951 s
3 | COc1ccc2[nH]cc(CCNC(=O)c3cc(S(=O)(=O)N4CCSCC4)ccc3Cl)c2c1 | 880 s
4 | Cc1cc(S(=O)(=O)N2CCCC2c2nc(-c3ccc(Cl)cc3)no2)ccc1F (stereo not given) | 1240 s
5 | COc1ccc(-c2ccnc3nc(C(C)C)nn23)c(F)c1 | 840 s
6 | CCN1C(=O)CCc2cc(NS(=O)(=O)c3ccccc3C(=O)OC)ccc21 | 790 s
7 | CCOCN(C(=O)Cn1c(CC)nc2ccccc21)c1c(C)cccc1CC | 780 s
8 | O=C(c1ccc(CN2C(=O)CSc3ncccc32)cc1)N1CCN(c2ccccn2)CC1 | 710 s
9 | Clc1ccc(C2CC3CCC2N3)cn1 (stereo not given) | 613 s
10 | O=C(NCc1ccco1)N1CCN(Cc2nc3cccnc3n2-c2cccc(F)c2)CC1 | 636 s
11 | O=C1[C@H]2CN(Cc3ccccc3F)C[C@H]2C(=O)N1CCc1ccccc1 | 781 s
12 | Cc1ccc(-n2nc3c(N4CCCC(C(=O)NCc5ccc(F)cc5)C4)nnc(C)c3c2C)cc1 (stereo not given) | 761 s
13 | Cc1ccccc1Nc1c(-c2c(F)cccc2Cl)nc2cccc(C)n12 | 762 s
14 | Cc1nc(Cn2cccc2C(=O)Nc2ccc(C)c(C)c2)no1 | 910 s
15 | COc1ccc(OC)c(S(=O)(=O)N2CCCC(C(=O)NCCC(C)C)C2)c1 (stereo not given) | 863 s
16 | Cc1cccc(C)c1Nc1c(-c2cc(Br)ccc2O)nc2ncccn12 | 1090 s
17 | COc1ccc(CNC2=NCCNC23CCN(S(=O)(=O)c2cc(C)ccc2C)CC3)cc1 | 754 s
18 | CCOC(=O)c1c(N2C(=O)C3C4C=CC(O4)C3C2=O)sc2c1CCCC2 (stereo not given) | 872 s
19 | COCCn1ncc(N2CCC(C(=O)Nc3cc(OC)cc(OC)c3)C2)cc1=O (stereo not given) | 684 s
20 | Cc1cccc(-c2nn3c(c2-c2ccnc4ccc(C(N)=O)cc24)CCC3)n1 | 612 s
21 | COc1ccccc1CCC(=O)N1CCc2cc(-c3ccno3)ccc21 | 1040 s
22 | COc1ccc(C)cc1NC(=O)C1CCN(S(=O)(=O)c2cn(C)cn2)CC1 | 666 s

Row | Compound | RP-LC retention time
23 | O=C(C1=NN(Cc2ccc(Cl)cc2)c2ccccc2S1(=O)=O)N1CCOCC1 | 854 s
24 | Cc1nnc(-c2ccc3ccn(CC(=O)N4CCCCC4)c3c2)o1 | 748 s
25 | O=S(=O)(Nc1ccc2c(c1)OCO2)c1ccc2nncn2c1 | 648 s
26 | COc1ccc(-c2csc(NC(=O)CSc3nc(C)cc(C)n3)n2)cc1 | 979 s
27 | CC(C)NC(=O)C1COC2(CCN(C(=O)c3cccc(Cl)c3)CC2)N1C(=O)c1ccccc1 (stereo not given) | 725 s
28 | COc1ccc2cc1Oc1ccc(cc1)CC1c3c(cc(OC)c4c3Oc3cc5c(cc3O4)CCNC5C2)CCN1C (stereo not given) | 601 s
29 | CN(C)C(=O)c1ccc2c(c1)CCN2C(=O)C1CCCC1 | 720 s
30 | O=C(Cc1ccccc1Cl)NC(c1ccccc1)c1nnc(N2CCCCC2)o1 (stereo not given) | 899 s
31 | Cc1ccc(N2CCC(NC(=O)c3ccc(Br)o3)C2=O)cc1 (stereo not given) | 812 s
32 | COc1ccc(Cl)cc1C(=O)Nc1ccc(-c2cn3ccc(C)nc3n2)cc1 | 727 s
33 | COc1ccc(CNC(=O)C2=C3CCCN3c3ccccc3S2(=O)=O)cc1 | 795 s
34 | CC1CN2C=NC(N3CCN(C(=O)Nc4ccc(F)cc4F)CC3)=CC2=N1 (stereo not given) | 664 s
35 | COc1cccc(NC(=O)N2CCN(c3ccc(Nc4cc(C)ccn4)nn3)CC2)c1 | 588 s
36 | CC(C)c1cc(-c2nnc3sc(COc4ccc(Cl)cc4)nn23)n[nH]1 | 900 s
37 | Cn1cnc(S(=O)(=O)N2CC(c3nc(CCOCc4ccccc4)no3)C2)c1 | 745 s
38 | Cc1ccc(S(=O)(=O)N2C[C@@H](F)C[C@H]2C(=O)N2CCCCC2)cc1Cl | 826 s
39 | C=CCn1nnc(NCc2ccc(-c3ccc(Br)cc3Br)o2)n1 | 1200 s
40 | CCCN(CCC)CCc1c[nH]c2ccc(C(N)=O)cc12 | 640 s
41 | Nc1sc(SCC(=O)NCc2ccc(F)cc2)nc1-c1ccccc1 | 796 s
42 | CCCn1c(=O)sc2cc(S(=O)(=O)N3CCC(C(=O)Nc4cc(C)ccn4)CC3)ccc21 | 844 s
43 | CCOc1ccc(NC(=O)c2cn(-c3cc(N4CCC(C)CC4)ncn3)cn2)cc1 | 1110 s
44 | O=c1ccc(-n2cccn2)nn1CCNS(=O)(=O)c1ccc(Cl)s1 | 708 s

Row | Compound | RP-LC retention time
45 | Cc1cc(F)ccc1N1C(=O)CN(S(C)(=O)=O)CC1(C)C(=O)NC1CCCCCCC1 (stereo not given) | 1070 s
46 | CCC(C(=O)N1CCC(C)CC1)n1cnc2onc(-c3ccc(Cl)cc3)c2c1=O (stereo not given) | 1280 s
47 | Cc1sc(C)c(S(=O)(=O)NCc2ccccc2)c1-c1cc(C(F)(F)F)on1 | 1140 s
48 | CCOC(=O)c1c(C)[nH]c(C(=O)N2CCCC(C(=O)NCCN3CCN(CC)CC3)C2)c1C (stereo not given) | 567 s
49 | O=C(Cc1csc(-c2ccccc2)n1)NCc1nc2ccccc2[nH]1 | 647 s
50 | O=C(c1ccco1)N1CCCC(OCc2nc(C3CC3)no2)C1 (stereo not given) | 732 s
51 | Cc1cc2nn(CC(=O)N3CCc4ccccc43)c(=O)n2c(Nc2ccc(F)cc2)n1 | 1030 s
52 | CC(C)S(=O)(=O)N1CCCC(Cn2cc(COc3ccc4c(c3)CCC4)nn2)C1 (stereo not given) | 595 s
53 | CC(C)CNC(=O)N1CCCC(CCc2nnc(-c3cnccn3)o2)C1 (stereo not given) | 697 s
54 | Cc1csc(-c2cc(S(=O)(=O)NCc3cccs3)c(C)n2C)n1 | 924 s
55 | CCc1nc(OCC(=O)Nc2ccc(C)cc2Cl)c2ccccc2n1 | 885 s
56 | O=c1n(Cc2cccc(F)c2)nc2c(S(=O)(=O)N3CCCCC3)cccn12 | 872 s
57 | O=C(Cc1nnc(-c2cnccn2)o1)Nc1ccccc1Cl | 681 s
58 | Cc1ccc(CNC(=O)C2(C)CCN(C(=O)Nc3ccc(C)cc3Cl)CC2)cc1 | 956 s
59 | Cc1cc(C)cc(NC(=O)N2CCC(n3cnc4ccc(C)cc4c3=O)CC2)c1 | 838 s
60 | CCC(c1cccs1)N1C(=O)[C@H]2CN(S(=O)(=O)c3ccccc3Cl)C[C@H]2C1=O (stereo not given in full) | 1000 s
61 | CCNC(=O)Nc1ccc(OCC(=O)NC2CCN(Cc3ccccc3)CC2)nc1 | 584 s
62 | Cc1cc(C)c(S(=O)(=O)N2CC(c3nc(Cc4ccccc4)no3)C2)c(C)c1 | 1190 s
63 | CCOc1ccc(N2C(=O)Nc3ccccc3C2(O)C(=O)NCCCN2CCC(C)CC2)cc1 (stereo not given) | 582 s
64 | COc1cc(NC(=O)c2cnn(-c3ccc(Br)cc3)c2)cc(OC)c1OC | 931 s
65 | COc1ccc(-n2c(=O)c(C(=O)NC(C)c3ccc(F)cc3)c(O)c3cccnc32)cc1 (stereo not given) | 1220 s
